Assay results as given in US20230151432A1, “KIF18A INHIBITORS FOR TREATMENT OF NEOPLASTIC DISEASES” (AMGEN INC., priority 2020, published 2023).
“Also recorded” adds a separate entry of the source.

Assays:
[1] = molecular target: T1, human KIF18A (residues 1-467) (Homo sapiens, UniProt Q8NI77); experiment: KIF18A MT-ATPase motor activity, ADP-Glo luminescence assay (Example 19); format: biochemical; settings: human KIF18A 4 nM, 30 μM ATP; three independent experiments; read-out: IC50, KIF18A motor activity (MT-ATPase)
T1 construct: human KIF18A (residues 1-467, 4 nM); made in house
T1 sequence (Q8NI77 1-467): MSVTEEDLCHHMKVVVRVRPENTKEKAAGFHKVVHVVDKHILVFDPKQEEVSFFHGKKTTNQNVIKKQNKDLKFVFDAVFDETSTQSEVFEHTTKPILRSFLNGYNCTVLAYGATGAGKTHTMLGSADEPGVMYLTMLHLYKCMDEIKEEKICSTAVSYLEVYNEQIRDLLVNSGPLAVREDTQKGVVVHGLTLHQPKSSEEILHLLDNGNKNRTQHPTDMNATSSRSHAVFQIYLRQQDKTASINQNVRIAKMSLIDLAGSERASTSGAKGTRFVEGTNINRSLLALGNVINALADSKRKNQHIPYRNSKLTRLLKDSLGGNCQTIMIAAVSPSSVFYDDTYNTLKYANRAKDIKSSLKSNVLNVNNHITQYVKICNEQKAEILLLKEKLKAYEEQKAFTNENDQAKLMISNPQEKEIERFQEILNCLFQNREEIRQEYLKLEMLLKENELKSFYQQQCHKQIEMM
T1 sequence (P02550 whole entry partner, the tested form may be a part): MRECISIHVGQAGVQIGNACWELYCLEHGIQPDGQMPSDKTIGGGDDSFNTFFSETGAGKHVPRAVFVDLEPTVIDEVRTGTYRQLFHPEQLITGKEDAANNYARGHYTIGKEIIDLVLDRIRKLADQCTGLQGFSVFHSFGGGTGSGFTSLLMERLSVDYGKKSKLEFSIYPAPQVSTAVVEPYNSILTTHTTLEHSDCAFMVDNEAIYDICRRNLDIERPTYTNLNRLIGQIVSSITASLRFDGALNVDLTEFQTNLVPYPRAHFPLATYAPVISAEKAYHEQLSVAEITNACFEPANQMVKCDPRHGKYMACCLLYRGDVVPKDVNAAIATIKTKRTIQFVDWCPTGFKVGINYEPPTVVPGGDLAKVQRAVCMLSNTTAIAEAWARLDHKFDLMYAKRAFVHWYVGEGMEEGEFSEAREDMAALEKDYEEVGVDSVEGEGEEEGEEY
T1 sequence (P02554 whole entry partner, the tested form may be a part): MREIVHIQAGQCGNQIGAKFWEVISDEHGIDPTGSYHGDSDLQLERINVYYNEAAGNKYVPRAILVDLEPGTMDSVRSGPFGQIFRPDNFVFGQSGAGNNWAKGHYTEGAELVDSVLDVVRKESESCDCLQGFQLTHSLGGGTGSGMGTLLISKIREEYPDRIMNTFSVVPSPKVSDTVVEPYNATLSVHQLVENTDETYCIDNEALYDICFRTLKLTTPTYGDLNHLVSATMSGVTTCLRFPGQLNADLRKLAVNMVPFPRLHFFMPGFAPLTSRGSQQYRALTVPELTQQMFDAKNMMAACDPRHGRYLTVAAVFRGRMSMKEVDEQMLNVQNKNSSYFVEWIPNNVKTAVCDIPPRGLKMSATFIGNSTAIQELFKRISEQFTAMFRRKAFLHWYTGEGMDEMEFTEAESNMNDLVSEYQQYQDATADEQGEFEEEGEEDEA
Description: A trio of KIF18A inhibitors (Compound C9, Compound C11, and Compound C12) were synthesized and tested in vitro for KIF18A inhibitory activity. […] The values represent mean t SEM from three independent experiments. […] As in vivo studies in mice were planned, the mouse KIF18A inhibitory effects of Compound C9 and C12 were assayed.
KIF18A compounds C9, C11, C12 were 2-fold serially diluted over a 22-point concentration range in DMSO using 384-well plate (Corning). Recombinant truncated kinesin motor proteins (human KIF18A (residues 1-467, 4 nM), mouse KIF18A (residues 1-467, 4 nM)) were expressed and purified. ADP-Glo luminescence assay (Promega) was used to measure the MT-ATPase motor activity. Porcine brain MTs were procured from Cytoskeleton Inc. Compounds were pre-incubated for <30 min in reaction buffer (15 mM Tris, pH 7.5, 10 mM MgCl2, 0.01% Pluronic F-68, 2% DMSO, 1 μM paclitaxel, 30 μg/mL MTs) with motor proteins at concentrations indicated above, 30 μM ATP was added to initiate the enzymatic reaction for 15 min at room temperature (RT). ADP-Glo reagents were added according to manufactures protocol, the luminescence intensity proportional to ADP present was measured using an EnVision plate reader (Perkin Elmer). Raw luminescence signal data was normalized to POC (percentage of positive control) and then Activity (%) was computed [POC=100×(sample signal−negative control signal)+(positive control signal−negative control signal). Activity (%)=POC−100]. The positive control (enzyme+substrate) and negative control (substrate alone) had equivalent concentrations of DMSO. Curve-fitting and IC50 values were determined by 4-parameter non-linear regression equation (variable slope) using GraphPad Prism 7.05 (GraphPad Software).

[2] = tested on: human bone marrow mononuclear cells (HBMNC); experiment: BrdU cell cycle analysis and live cell count in normal cells; format: cell-based; settings: two normal donors; for BrdU incorporation (cell cycle analysis) relative to DMSO/vehicle control: 48 h, C9, C11, palbociclib 1 μM, ispinesib 0.05 μM, paclitaxel; for live cell count relative to vehicle control: 96 hours
Description: The effect KIF18A inhibitor treatment has on proliferation of normal somatic cells (e.g., not neoplastic cells) was tested by assaying proliferation of human bone marrow mononuclear cells (HBMNCs), primary human foreskin fibroblast cells (hFSF) and human mammary epithelial cells via a 5-bromo-2′-deoxyuridine (BrdU) incorporation assay in which BrdU, an analog of the nucleoside thymidine, is used to identify proliferating cells (Payton et. al., Molecular Cancer Therapeutics, 17(12):2575-85 (2018)). Cells were analyzed on BD LSRFortessa flow cytometer using BD FACSDiva software (BD Biosciences), and post-acquisition data analysis was performed using FSC-Express software (De Novo). The percentage of BrdU positive gated events on the stacked DNA content histograms were reported.
To further examine the effects of KIF18A inhibitor treatment on HBMNC, two normal donors were assessed using the BrdU coupled cell cycle assay and cell count assay (96 hours) was. […] In particular, the amount of BrdU-stained proliferating cells treated with Ispinesib, paclitaxel, or a CDK 4/6 inhibitor (palbociclib) was far less than the amount of vehicle control-treated BrdU-stained cells. […] KIF18A inhibitor treatment was also analyzed for impact on live cell count. After 96 hours, live cells were counted by Vi-CELL XR Cell Viability Analyzer (Beckman Coulter).
To investigate whether KIF18A inhibitors could circumvent this normal cell toxicity barrier, we examined the effects of Compounds C9 and C11 on a panel of cycling normal somatic cell types. First, we treated human bone marrow mononuclear cells (HBMNC) from two normal donors with DMSO, Compound C9 and C11 at 1 μM, ispinesib at 0.05 μM, paclitaxel at 0.05 μM, or palbociclib at 1 μM for 48 h (cell cycle) or 96 h (cell growth).
BrdU and cell cycle analysis. Human bone marrow mononuclear cells (HBMNCs) from two normal donors (#37612, #37534) were cultured for 8 days in defined media as previously described (Payton et al 2018). HBMNCs were seeded in 24-well plate at 1.2×10^6 cells per well in duplicate plates. Cells were treated with DMSO, Compound C9 (1 μM), Compound C11 (1 μM), ispinesib (0.05 μM), paclitaxel ([…]), or palbociclib (1 μM). Cells were collected at 48 h (cell cycle) and 96 h (cell growth). The first set of plates were pulsed with BrdU for 2 h and processing for BrdU cell cycle analysis as previously described (Payton et al 2018). Cells were analyzed on BD LSRFortessa flow cytometer running BD FACSDiva software and post-acquisition data analysis was performed using FSC-Express software. Data was reported for the percentage of BrdU and subG1 gated populations. The second set of plates were collected, and cells counted using Vi-CELL XR Cell Viability Analyzer (Beckman Coulter).

MDA-MB-157 cells = experiment: pH3 and PCM spot EC50 determination; settings: pH3 and PCM spot EC50 values

Structure (SMILES)	IC50 [1]	BrdU incorporation (cell cycle analysis) relative to DMSO/vehicle control [2]	live cell count relative to vehicle control [2]	improvement of cell potency relative to a control compound (MDA-MB-157 cells)
CC(C)(CO)Nc1ccc(C(=O)Nc2cccc(S(=O)(=O)C3CCCC3)c2)c(N2CCC3(CC2)CC3)n1 [Compound C11, N-(3-(cyclopentylsulfonyl)phenyl)-6-((1-hydroxy-2-methylpropan-2-yl)amino)-2-(6-azaspiro[2.5]octan-6-yl)nicotinamide]	70 nM	about the same; also recorded: minimal diminution in BrdU incorporation	little to no effect; also recorded: comparable cell counts	> 70 fold
CC(C)(C)NS(=O)(=O)c1cccc(NC(=O)c2ccc(S(=O)(=O)NC(C)(C)C)cc2N2CCC3(CC2)CC3)c1 [Compound C9, 4-(N-(tert-butyl)sulfamoyl)-N-(3-(N-(tert-butyl)sulfamoyl)phenyl)-2-(6-azaspiro[2.5]octan-6-yl)benzamide]	180 nM	about the same; also recorded: minimal diminution in BrdU incorporation	little to no effect; also recorded: comparable cell counts	> 450 fold
